PubChem BioAssay (NCI)
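Here, GI50 denotes the concentration required for 50% inhibition of growth. TGI marks complete inhibition of growth.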

Tests used:
Experiment in all cases: DTP human tumour cell line panel, 384-well format
NCI-H460 NSCLC = test system: NCI-H460 NSCLC
786-0 renal = test system: 786-0 renal
HOP-92 NSCLC = test system: HOP-92 NSCLC
LOX IMVI melanoma = test system: LOX IMVI melanoma
SK-MEL-5 melanoma = test system: SK-MEL-5 melanoma
MCF7 breast = test system: MCF7 breast
HS 578T breast = test system: HS 578T breast
EKVX NSCLC = test system: EKVX NSCLC
NCI-H322M lung = test system: NCI-H322M lung
HOP-62 NSCLC = test system: HOP-62 NSCLC
HCC-2998 colon = test system: HCC-2998 colon
SR leukemia = test system: SR leukemia
SF-268 CNS = test system: SF-268 CNS
OVCAR-8 ovarian = test system: OVCAR-8 ovarian
NCI-H522 lung = test system: NCI-H522 lung
SNB-75 CNS = test system: SNB-75 CNS
K-562 leukemia = test system: K-562 leukemia
SF-539 CNS = test system: SF-539 CNS
SN12C renal = test system: SN12C renal
OVCAR-4 ovarian = test system: OVCAR-4 ovarian
MDA-MB-231 breast = test system: MDA-MB-231 breast
IGROV1 ovarian = test system: IGROV1 ovarian
OVCAR-5 ovarian = test system: OVCAR-5 ovarian
MOLT-4 leukemia = test system: MOLT-4 leukemia
SF-295 CNS = test system: SF-295 CNS
OVCAR-3 ovarian = test system: OVCAR-3 ovarian
KM12 colon = test system: KM12 colon
RPMI-8226 leukemia = test system: RPMI-8226 leukemia
DU-145 prostate = test system: DU-145 prostate
T-47D breast = test system: T-47D breast
CCRF-CEM leukemia = test system: CCRF-CEM leukemia
NCI-H226 lung = test system: NCI-H226 lung
COLO 205 colon = test system: COLO 205 colon
MALME-3M melanoma = test system: MALME-3M melanoma
HCT-116 colon = test system: HCT-116 colon
U251 glioblastoma = test system: U251 glioblastoma
PC-3 prostate = test system: PC-3 prostate
MDA-MB-468 breast = test system: MDA-MB-468 breast
NCI/ADR-RES ovarian = test system: NCI/ADR-RES ovarian
SK-OV-3 ovarian = test system: SK-OV-3 ovarian
BT-549 breast = test system: BT-549 breast
SK-MEL-28 melanoma = test system: SK-MEL-28 melanoma
TK-10 renal = test system: TK-10 renal
HCT-15 colon = test system: HCT-15 colon
HT29 colon = test system: HT29 colon
SK-MEL-2 melanoma = test system: SK-MEL-2 melanoma
RXF 393 renal = test system: RXF 393 renal

COC1(C(=O)N2Cc3nc(Cl)nc(N[C@H](C)c4cc(N)cc(C(F)(F)F)c4)c3C2)CCOCC1
GI50 (NCI-H460 NSCLC): 16.4 µM | TGI (NCI-H460 NSCLC): 31 µM | GI50 ([…]-0 renal): 16.5 µM | TGI (786-0 renal): 33.2 µM | GI50 (HOP-92 NSCLC): 0.646 µM | TGI (HOP-92 NSCLC): 18.6 µM | GI50 (LOX IMVI melanoma): 18.7 µM | TGI (LOX IMVI melanoma): 32.8 µM | GI50 (SK-MEL-5 melanoma): 15 µM | TGI (SK-MEL-5 melanoma): 28.4 µM | GI50 (MCF7 breast): 13.4 µM | TGI (MCF7 breast): 30 µM | GI50 (HS 578T breast): 12.6 µM | TGI (HS 578T breast): 25.7 µM | GI50 (EKVX NSCLC): 12.8 µM | TGI (EKVX NSCLC): 38.8 µM | GI50 (NCI-H322M lung): 13.5 µM | TGI (NCI-H322M lung): 43.2 µM | GI50 (HOP-62 NSCLC): 15.6 µM | TGI (HOP-62 NSCLC): 29.3 µM | GI50 (HCC-2998 colon): 15.4 µM | TGI (HCC-2998 colon): 30.3 µM | GI50 (SR leukemia): 10.5 µM | TGI (SR leukemia): 22.4 µM | GI50 (SF-268 CNS): 17.2 µM | TGI (SF-268 CNS): 34.8 µM | GI50 (OVCAR-8 ovarian): 18.4 µM | TGI (OVCAR-8 ovarian): 46.1 µM | GI50 (NCI-H522 lung): 12.5 µM | TGI (NCI-H522 lung): 34.4 µM | GI50 (SNB-75 CNS): 10.7 µM | TGI (SNB-75 CNS): 23.5 µM | GI50 (K-562 leukemia): 0.152 µM | TGI (K-562 leukemia): 15 µM | GI50 (SF-539 CNS): 15.3 µM | TGI (SF-539 CNS): 28.7 µM | GI50 (SN12C renal): 10.1 µM | TGI (SN12C renal): 25.3 µM | GI50 (OVCAR-4 ovarian): 15.6 µM | TGI (OVCAR-4 ovarian): 43.8 µM | GI50 (MDA-MB-231 breast): 22.4 µM | TGI (MDA-MB-231 breast): 55.3 µM | GI50 (IGROV1 ovarian): 16.1 µM | TGI (IGROV1 ovarian): 33.6 µM | GI50 (OVCAR-5 ovarian): 23.2 µM | TGI (OVCAR-5 ovarian): 75 µM | GI50 (MOLT-4 leukemia): 8.48 µM | TGI (MOLT-4 leukemia): 21 µM | GI50 (SF-295 CNS): 15.1 µM | TGI (SF-295 CNS): 32.5 µM | GI50 (OVCAR-3 ovarian): 13.1 µM | TGI (OVCAR-3 ovarian): 26.2 µM | GI50 (KM12 colon): 3.55 µM | TGI (KM12 colon): 22 µM | GI50 (RPMI-8226 leukemia): 10.6 µM | TGI (RPMI-8226 leukemia): 22.5 µM | GI50 (DU-145 prostate): 19.9 µM | TGI (DU-145 prostate): 50.9 µM | GI50 (T-47D breast): 12.4 µM | TGI (T-47D breast): 32.5 µM | GI50 (CCRF-CEM leukemia): 15.5 µM | TGI (CCRF-CEM leukemia): 29.1 µM | GI50 (NCI-H226 lung): 13.4 µM | TGI (NCI-H226 lung): 31 µM | GI50 (COLO 205 colon): 24 µM | TGI (COLO 205 colon): 56.9 µM | GI50 (MALME-3M melanoma): 16.2 µM | TGI (MALME-3M melanoma): 34.3 µM | GI50 (HCT-116 colon): 16.3 µM | TGI (HCT-116 colon): 31.2 µM | GI50 (U251 glioblastoma): 15.1 µM | TGI (U251 glioblastoma): 29.7 µM | GI50 (PC-3 prostate): 16.3 µM | TGI (PC-3 prostate): 31.5 µM | GI50 (MDA-MB-468 breast): 8.68 µM | TGI (MDA-MB-468 breast): 24.8 µM | GI50 (NCI/ADR-RES ovarian): 17.5 µM | TGI (NCI/ADR-RES ovarian): 51.8 µM | GI50 (SK-OV-3 ovarian): 18.9 µM | TGI (SK-OV-3 ovarian): 40.3 µM | GI50 (BT-549 breast): 14.5 µM | TGI (BT-549 breast): 28 µM | GI50 (SK-MEL-28 melanoma): 18.5 µM | TGI (SK-MEL-28 melanoma): 34.9 µM | GI50 (TK-10 renal): 14.9 µM | TGI (TK-10 renal): 35.3 µM | GI50 (HCT-15 colon): 18.6 µM | TGI (HCT-15 colon): 38.9 µM | GI50 (HT29 colon): 18.2 µM | TGI (HT29 colon): 35.9 µM | GI50 (SK-MEL-2 melanoma): 16.9 µM | TGI (SK-MEL-2 melanoma): 31.1 µM | GI50 (RXF 393 renal): 13.8 µM | TGI (RXF 393 renal): 27.4 µM
